# According to patent US20050282818A1, “Ubiquitin ligase inhibitors” (Rigel Pharmaceuticals, Inc., priority 2004, published 2005):
# Where two headings read alike, the source gives them in different places.
# Columns and labels:
# TRAF6/Uev1A/Ubc13 = biological target: T1, TRAF6/Uev1A/Ubc13 (Homo sapiens, UniProt Q9Y4K3); assay: TRAF6/Uev1A/Ubc13 plate-based ubiquitin ligase assay; assay type: biochemical
# T1 sequence (Q9Y4K3 1-522): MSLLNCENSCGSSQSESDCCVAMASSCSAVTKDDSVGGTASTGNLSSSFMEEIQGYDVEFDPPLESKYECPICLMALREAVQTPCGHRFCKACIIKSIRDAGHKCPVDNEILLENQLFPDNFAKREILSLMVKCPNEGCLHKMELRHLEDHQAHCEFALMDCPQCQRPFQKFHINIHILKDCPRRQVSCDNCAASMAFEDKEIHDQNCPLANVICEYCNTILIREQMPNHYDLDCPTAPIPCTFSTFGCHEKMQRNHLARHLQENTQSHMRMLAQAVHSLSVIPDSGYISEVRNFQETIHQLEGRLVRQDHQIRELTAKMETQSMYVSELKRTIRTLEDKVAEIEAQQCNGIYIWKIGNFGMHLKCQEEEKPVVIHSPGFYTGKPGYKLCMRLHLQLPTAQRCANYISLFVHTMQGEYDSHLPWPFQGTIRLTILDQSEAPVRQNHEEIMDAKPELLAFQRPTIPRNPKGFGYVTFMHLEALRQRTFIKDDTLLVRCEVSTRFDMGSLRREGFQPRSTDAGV
# Method in brief: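 Ligase activity was read as luminescence from anti-Flag/HRP detection of Flag-ubiquitin bound to casein-blocked Ni-plates alongside His-ubiquitin after a 1 h room-temperature reaction. Buffer: 62.5 mM Tris pH 7.5, 6.25 mM MgCl2, 1.0 mM DTT, 2 μM ATP; E1, Uev1a/Ubc13 and TRAF6 added last to start. IC50s derived across compound concentrations.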
# A549 cells = assay: Cell proliferation PAD assay, A549; assay type: cell-based; details: Homo sapiens, 48 hours
# Method in brief: (§1)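 Plate 2,000 cells per well, then add compound after 24 h as duplicate 6.3-fold dilutions, with 10 mM master stock diluted 500-fold on transfer. Grow 48 h at 37 °C in 5% CO2, fix with formamide, stain nuclei with DAPI, and count cells by imaging.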
# H1299 cells = assay: Cell proliferation PAD assay, H1299; assay type: cell-based; details: Homo sapiens, 48 hours
# Method in brief: as §1
# [1] = NCI-H1299, 6pt, read-out: H1299 6pt
# [2] = NCI-H1299, 3pt, read-out: H1299 3pt
IC50 (TRAF6/Uev1A/Ubc13),"IC50 (A549 cells; 6pt, read-out: A549 6pt)",IC50 (H1299 cells; [1]),"IC50 (A549 cells; 3pt, read-out: A549 3pt)",IC50 (H1299 cells; [2]),SMILES
1 to 20 µM,< 1 µM,< 1 µM,,,"O=[N+]([O-])c1ccc(Sc2cccc3cccnc23)c2nonc12 [compound 5, 8-[(7-Nitro-2,1,3-benzoxadiazol-4-yl)thio]quinoline]"
1 to 20 µM,1 to 20 µM,1 to 20 µM,≥ 20 µM,≥ 20 µM,"O=[N+]([O-])c1ccc(Oc2c(Cl)cc(S(=O)(=O)Nc3cccc4nsnc34)cc2Cl)c(Cl)c1 [compound 73, N-2,1,3-benzothiadiazol-4-yl-3,5-dichloro-4-(2-chloro-4-nitrophenoxy)benzenesulfonamide]"
1 to 20 µM,,,,,"O=S(=O)(Nc1cccc2nonc12)c1ccc(Oc2ncc(C(F)(F)F)cc2Cl)cc1 [compound 78, N-2,1,3-benzoxadiazol-4-yl-4-{[3-chloro-5-(trifluoromethyl)pyridin-2-yl]oxy}benzenesulfonamide]"
1 to 20 µM,,,,,"O=S(=O)(Nc1cccc2nsnc12)c1ccc(Oc2ccccc2)cc1 [compound 94, N-2,1,3-benzothiadiazol-4-yl-4-phenoxybenzenesulfonamide]"
1 to 20 µM,,,≥ 20 µM,≥ 20 µM,"O=[N+]([O-])c1ccc(N2CCN(c3ncccn3)CC2)c2nonc12 [compound 109, 4-nitro-7-(1,3-(pyrimidin-2-yl)piperazin-1-yl)-2,1,3-benzoxadiazole]"
1 to 20 µM,,,,,"O=[N+]([O-])c1ccc(Oc2ccc(S(=O)(=O)Nc3cccc4nonc34)cc2Cl)c(C(F)(F)F)c1 [compound 114, N-2,1,3-benzoxadiazol-4-yl-3-chloro-4-[4-nitro-2-(trifluoromethyl)phenoxy]benzenesulfonamide]"
1 to 20 µM,,,≥ 20 µM,≥ 20 µM,"N#Cc1ccc(N2CCN(c3ccc([N+](=O)[O-])c4nonc34)CC2)nc1 [compound 121, 6-[4-(7-nitro-2,1,3-benzoxadiazol-4-yl)piperazin-1-yl]nicotinonitrile]"
1 to 20 µM,,,≥ 20 µM,≥ 20 µM,"Cc1ccc(N2CCN(c3ccc([N+](=O)[O-])c4nonc34)CC2)cc1C [compound 140, 4-[4-(3,4-dimethylphenyl)piperazin-1-yl]-7-nitro-2,1,3-benzoxadiazole]"
1 to 20 µM,,,,≥ 20 µM,"Cc1ccc(Cl)cc1N1CCN(c2ccc([N+](=O)[O-])c3nonc23)CC1 [compound 145, 4-[4-(5-chloro-2-methylphenyl)piperazin-1-yl]-7-nitro-2,1,3-benzoxadiazole]"
1 to 20 µM,,,1 to 20 µM,1 to 20 µM,"O=[N+]([O-])c1ccc(N2CCN(c3ccc(O)cc3)CC2)c2nonc12 [compound 146, 4-[4-(7-nitro-2,1,3-benzoxadiazol-4-yl)piperazin-1-yl]phenol]"
≥ 20 µM,< 1 µM,< 1 µM,< 1 µM,1 to 20 µM,"O=[N+]([O-])c1ccc(SCCO)c2nonc12 [compound 150, 2-[(7-nitro-2,1,3-benzoxadiazol-4-yl)thio]ethanol]"
1 to 20 µM,,,,,"O=[N+]([O-])c1ccc(Sc2nc3ccccc3s2)c2nonc12 [compound 158, 4-(1,3-benzothiazol-2-ylthio)-7-nitro-2,1,3-benzoxadiazole]"
≥ 20 µM,≥ 20 µM,≥ 20 µM,1 to 20 µM,1 to 20 µM,"COC(=O)c1ccc(NS(=O)(=O)c2ccc(F)c3nonc23)cc1 [compound 167, methyl 4-{[(7-fluoro-2,1,3-benzoxadiazol-4-yl)sulfonyl]amino}benzoate]"
≥ 20 µM,≥ 20 µM,< 1 µM,1 to 20 µM,1 to 20 µM,"COC(=O)c1ccc(NS(=O)(=O)c2c(Cl)ccc3nonc23)cc1 [compound 178, methyl 4-{[(5-chloro-2,1,3-benzoxadiazol-4-yl)sulfonyl]amino}benzoate]"

# Second part, the molecule before the results:
SMILES,IC50 (TRAF6/Uev1A/Ubc13),"IC50 (A549 cells; 6pt, read-out: A549 6pt)",IC50 (H1299 cells; [1]),"IC50 (A549 cells; 3pt, read-out: A549 3pt)",IC50 (H1299 cells; [2])
"O=[N+]([O-])c1ccc(N2CCN(c3cc(C(F)(F)F)ccn3)CC2)c2nonc12 [compound 90, 4-nitro-7-{4-[4-(trifluoromethyl)pyridin-2-yl]piperazin-1-yl}-2,1,3-benzoxadiazole]",1 to 20 µM,1 to 20 µM,1 to 20 µM,≥ 20 µM,≥ 20 µM
"N#CC1(c2ccccc2)CCN(c2ccc([N+](=O)[O-])c3nonc23)CC1 [compound 141, 1-(7-nitro-2,1,3-benzoxadiazol-4-yl)-4-phenylpiperidine-4-carbonitrile]",1 to 20 µM,,,≥ 20 µM,≥ 20 µM
"O=C(c1ccc(F)cc1)C1CCN(c2ccc([N+](=O)[O-])c3nonc23)CC1 [compound 142, (4-fluorophenyl)[1-(7-nitro-2,1,3-benzoxadiazol-4-yl)piperidin-4-yl]methanone]",1 to 20 µM,,,≥ 20 µM,≥ 20 µM
"CC1CC(C)CN(c2ccc([N+](=O)[O-])c3nonc23)C1 (centres unmarked) [compound 144, 4-(3,5-dimethylpiperidin-1-yl)-7-nitro-2,1,3-benzoxadiazole]",1 to 20 µM,,,,≥ 20 µM
"O=[N+]([O-])c1ccc(N2CCN(c3ncccc3C(F)(F)F)CC2)c2nonc12 [compound 148, 4-nitro-7-{4-[3-(trifluoromethyl)pyridin-2-yl]piperazin-1-yl}-2,1,3-benzoxadiazole]",1 to 20 µM,,,≥ 20 µM,≥ 20 µM
"CCOC(=O)c1cc(C#N)c(C)nc1N1CCN(c2ccc([N+](=O)[O-])c3nonc23)CC1 [compound 153, ethyl 5-cyano-6-methyl-2-[4-(7-nitro-2,1,3-benzoxadiazol-4-yl)piperazin-1-yl]nicotinate]",1 to 20 µM,,,≥ 20 µM,≥ 20 µM
"O=[N+]([O-])c1ccc(N2CCC(O)(c3ccc(Cl)cc3)CC2)c2nonc12 [compound 159, 4-(4-chlorophenyl)-1-(7-nitro-2,1,3-benzoxadiazol-4-yl)piperidin-4-ol]",1 to 20 µM,,,,
"N#Cc1cccnc1N1CCN(S(=O)(=O)c2ccc(Cl)c3nonc23)CC1 [compound 170, 2-{4-[(7-chloro-2,1,3-benzoxadiazol-4-yl)sulfonyl]piperazin-1-yl}nicotinomtrile]",1 to 20 µM,≥ 20 µM,≥ 20 µM,1 to 20 µM,1 to 20 µM
"O=S(=O)(Oc1ccc(N2CCN(S(=O)(=O)c3ccc(Cl)c4nonc34)CC2)cc1)c1ccc(Cl)c2nonc12 [compound 171, 4-{4-[(7-chloro-2,1,3-benzoxadiazol-4-yl)sulfonyl]piperazin-1-yl}phenyl 7-chloro-2,1,3-benzoxadiazole-4-sulfonate]",1 to 20 µM,≥ 20 µM,≥ 20 µM,≥ 20 µM,1 to 20 µM
"O=S(=O)(c1ccc(Sc2cccc3cccnc23)c2nonc12)N1CCN(c2ncc(C(F)(F)F)cc2Cl)CC1 [compound 177, 8-{[7-({4-[3-chloro-5-(trifluoromethyl)pyridin-2-yl]piperazin-1-yl}sulfonyl)-2,1,3-benzoxadiazol-4-yl]thio}quinoline]",1 to 20 µM,≥ 20 µM,≥ 20 µM,≥ 20 µM,≥ 20 µM
"O=S(=O)(c1c(Cl)ccc2nonc12)N1CCN(c2ncc(C(F)(F)F)cc2Cl)CC1 [compound 179, 5-chloro-4-({4-[3-chloro-5-(trifluoromethyl)pyridin-2-yl]piperazin-1-yl}sulfonyl)-2,1,3-benzoxadiazole]",1 to 20 µM,1 to 20 µM,< 1 µM,1 to 20 µM,1 to 20 µM
"N#Cc1ccccc1N1CCN(S(=O)(=O)c2c(Cl)ccc3nonc23)CC1 [compound 180, 2-{4-[(5-chloro-2,1,3-benzoxadiazol-4-yl)sulfonyl]piperazin-1-yl}benzonitrile]",≥ 20 µM,≥ 20 µM,≥ 20 µM,1 to 20 µM,1 to 20 µM
"O=S(=O)(c1c(N2CCN(c3ccc(Cl)c(C(F)(F)F)c3)CC2)ccc2nonc12)N1CCN(c2ccc(Cl)c(C(F)(F)F)c2)CC1 [compound 181, 5-{4-[4-chloro-3-(trifluoromethyl)phenyl]piperazin-1-yl}-4-({4-[4-chloro-3-(trifluoromethyl)phenyl]piperazin-1-yl}sulfonyl)-2,1,3-benzoxadiazole]",1 to 20 µM,1 to 20 µM,≥ 20 µM,≥ 20 µM,≥ 20 µM
"O=[N+]([O-])c1ccc(N2CCN(c3ncc(C(F)(F)F)cc3Cl)CC2)c2nonc12 [compound 315, 4-{4-[3-chloro-5-(trifluoromethyl)pyrindin-2-yl]piperazin-1-yl}-7-nitro-2,1,3-benzoxadiazole]",< 1 µM,,,,
